Laboratory results taken from the supplement of paper PMC10627819.

What was measured:
B. subtilis 168 [1] = experiment: fitness (endpoint OD595 vs no drug) (fraction); higher = more growth
Outline: (§1)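 At 37 °C, bacteria in TSB, LB Lennox or CY were grown in 384-well plates from a starting OD595 of 0.01. OD595 was measured every 30 min for 14 h, with the first reading used as background. Fitness is the optical density at the switch to stationary phase as a fraction of the robust mean of no-drug control wells, capped at 1.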

S. pneumoniae D39V [2] = experiment: as above
Outline: as §1

S. aureus DSM 20231 [3] = experiment: as above
Outline: as §1

B. subtilis 168 [4] = experiment: Bliss interaction score (quartile over a dose matrix) (fitness difference); higher = more antagonism (negative = synergy)
Outline: (§2)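 Combination data were used to infer fitness under each single drug. Fitness is the OD595 at entry into stationary phase divided by the robust mean of the plate's no-drug wells, with a cap of 1. The Bliss score is the observed minus the expected product fitness, summarised by quartiles over technical, biological and donor/recipient replicates.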

S. pneumoniae D39V [5] = experiment: as above
Outline: as §2

S. aureus Newman = experiment: as above
Outline: as §2

S. aureus DSM 20231 [6] = experiment: as above
Outline: as §2
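Throughout, for Bliss interaction score (quartile over a dose matrix): first quartile when negative (synergy) and third quartile when positive (antagonism).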

CCC[C@@H]1C[C@@H](C(=O)N[C@@H]([C@H]2O[C@H](SC)[C@H](O)[C@@H](O)[C@H]2O)[C@H](C)Cl)N(C)C1 [Clindamycin] + CC(=O)NC[C@H]1CN(c2ccc(N3CCOCC3)c(F)c2)C(=O)O1 [Linezolid]
one replicate
Details | fitness
B. subtilis 168 [1], first compound 0.0039 µg/mL, partner 0.125 µg/mL | 0.943
B. subtilis 168 [1], first compound 0.0039 µg/mL, partner 0.25 µg/mL | 0.772
B. subtilis 168 [1], first compound 0.0039 µg/mL, partner 0.5 µg/mL | 0.448
B. subtilis 168 [1], first compound 0.0078 µg/mL, partner 0.125 µg/mL | 0.853
B. subtilis 168 [1], first compound 0.0078 µg/mL, partner 0.25 µg/mL | 0.632
B. subtilis 168 [1], first compound 0.0078 µg/mL, partner 0.5 µg/mL | 0.118
B. subtilis 168 [1], first compound 0.0156 µg/mL, partner 0.125 µg/mL | 0.835
B. subtilis 168 [1], first compound 0.0156 µg/mL, partner 0.25 µg/mL | 0.624
B. subtilis 168 [1], first compound 0.0156 µg/mL, partner 0.5 µg/mL | 0.385
B. subtilis 168 [1], first compound 0.0625 µg/mL, partner 0.0625 µg/mL | 0.696
B. subtilis 168 [1], first compound 0.125 µg/mL, partner 0.0625 µg/mL | 0.497
B. subtilis 168 [1], first compound 0.25 µg/mL, partner 0.0625 µg/mL | 0.387
S. aureus DSM 20231 [3], first compound 0.0312 µg/mL, partner 1 µg/mL | 0.0507
S. aureus DSM 20231 [3], first compound 0.0625 µg/mL, partner 1 µg/mL | 0.0324
S. aureus DSM 20231 [3], first compound 0.125 µg/mL, partner 1 µg/mL | 0.0362

Details | fitness
B. subtilis 168 [1], first compound 0.0625 µg/mL, partner 0.125 µg/mL | 0.605
B. subtilis 168 [1], first compound 0.0625 µg/mL, partner 0.25 µg/mL | 0.0905
B. subtilis 168 [1], first compound 0.0625 µg/mL, partner 0.5 µg/mL | 0.0427
B. subtilis 168 [1], first compound 0.125 µg/mL, partner 0.125 µg/mL | 0.502
B. subtilis 168 [1], first compound 0.125 µg/mL, partner 0.25 µg/mL | 0.0971
B. subtilis 168 [1], first compound 0.125 µg/mL, partner 0.5 µg/mL | 0.0448
B. subtilis 168 [1], first compound 0.25 µg/mL, partner 0.125 µg/mL | 0.397
B. subtilis 168 [1], first compound 0.25 µg/mL, partner 0.25 µg/mL | 0.104
B. subtilis 168 [1], first compound 0.25 µg/mL, partner 0.5 µg/mL | 0.0468
S. aureus DSM 20231 [3], first compound 0.0312 µg/mL, partner 0.5 µg/mL | 0.143
S. aureus DSM 20231 [3], first compound 0.0625 µg/mL, partner 0.25 µg/mL | 0.13
S. aureus DSM 20231 [3], first compound 0.0625 µg/mL, partner 0.5 µg/mL | 0.0789
S. aureus DSM 20231 [3], first compound 0.125 µg/mL, partner 0.125 µg/mL | 0.0394
S. aureus DSM 20231 [3], first compound 0.125 µg/mL, partner 0.25 µg/mL | 0.0405
S. aureus DSM 20231 [3], first compound 0.125 µg/mL, partner 0.5 µg/mL | 0.0486
S. pneumoniae D39V [2], first compound 0.0125 µg/mL, partner 0.2 µg/mL | 0.624
S. pneumoniae D39V [2], first compound 0.0125 µg/mL, partner 0.4 µg/mL | 0.45
S. pneumoniae D39V [2], first compound 0.0125 µg/mL, partner 0.8 µg/mL | 0.264
S. pneumoniae D39V [2], first compound 0.015 µg/mL, partner 0.105 µg/mL | 0.81
S. pneumoniae D39V [2], first compound 0.015 µg/mL, partner 0.21 µg/mL | 0.748
S. pneumoniae D39V [2], first compound 0.015 µg/mL, partner 0.42 µg/mL | 0.627
S. pneumoniae D39V [2], first compound 0.025 µg/mL, partner 0.2 µg/mL | 0.412
S. pneumoniae D39V [2], first compound 0.025 µg/mL, partner 0.4 µg/mL | 0.345
S. pneumoniae D39V [2], first compound 0.025 µg/mL, partner 0.8 µg/mL | 0.237
S. pneumoniae D39V [2], first compound 0.03 µg/mL, partner 0.105 µg/mL | 0.707
S. pneumoniae D39V [2], first compound 0.03 µg/mL, partner 0.21 µg/mL | 0.683
S. pneumoniae D39V [2], first compound 0.03 µg/mL, partner 0.42 µg/mL | 0.539
S. pneumoniae D39V [2], first compound 0.05 µg/mL, partner 0.2 µg/mL | 0.176
S. pneumoniae D39V [2], first compound 0.05 µg/mL, partner 0.4 µg/mL | 0.148
S. pneumoniae D39V [2], first compound 0.05 µg/mL, partner 0.8 µg/mL | 0.112
S. pneumoniae D39V [2], first compound 0.06 µg/mL, partner 0.105 µg/mL | 0.579
S. pneumoniae D39V [2], first compound 0.06 µg/mL, partner 0.21 µg/mL | 0.544
S. pneumoniae D39V [2], first compound 0.06 µg/mL, partner 0.42 µg/mL | 0.277

Details | Bliss interaction score
B. subtilis 168 [4] | 0.215
S. aureus DSM 20231 [6] | 0.027
S. aureus Newman | -0.0929
S. pneumoniae D39V [5] | 0.132

CCC[C@@H]1C[C@@H](C(=O)N[C@@H]([C@H]2O[C@H](SC)[C@H](O)[C@@H](O)[C@H]2O)[C@H](C)Cl)N(C)C1 [Clindamycin] + CCC[C@@H]1C[C@@H](C(=O)N[C@@H]([C@H]2O[C@H](SC)[C@H](O)[C@@H](O)[C@H]2O)[C@@H](C)O)N(C)C1 [Lincomycin]
fitness, B. subtilis 168 [1], one replicate
Details | first compound 0.0039 µg/mL | first compound 0.0078 µg/mL | first compound 0.0156 µg/mL
partner 0.4 µg/mL | 0.964 | 0.838 | 0.828
partner 0.8 µg/mL | 0.965 | 0.803 | 0.83
partner 1.6 µg/mL | 0.94 | 0.817 | 0.81

Details | fitness
B. subtilis 168 [1], first compound 0.0625 µg/mL, partner 0.1 µg/mL | 0.659
B. subtilis 168 [1], first compound 0.0625 µg/mL, partner 0.2 µg/mL | 0.613
B. subtilis 168 [1], first compound 0.0625 µg/mL, partner 0.4 µg/mL | 0.675
B. subtilis 168 [1], first compound 0.125 µg/mL, partner 0.1 µg/mL | 0.454
B. subtilis 168 [1], first compound 0.125 µg/mL, partner 0.2 µg/mL | 0.406
B. subtilis 168 [1], first compound 0.25 µg/mL, partner 0.1 µg/mL | 0.363
B. subtilis 168 [1], first compound 0.25 µg/mL, partner 0.2 µg/mL | 0.355
B. subtilis 168 [1], first compound 0.25 µg/mL, partner 0.4 µg/mL | 0.356
S. aureus DSM 20231 [3], first compound 0.0312 µg/mL, partner 0.2 µg/mL | 0.265
S. aureus DSM 20231 [3], first compound 0.0312 µg/mL, partner 0.4 µg/mL | 0.137
S. aureus DSM 20231 [3], first compound 0.0625 µg/mL, partner 0.1 µg/mL | 0.16
S. aureus DSM 20231 [3], first compound 0.0625 µg/mL, partner 0.2 µg/mL | 0.112
S. aureus DSM 20231 [3], first compound 0.0625 µg/mL, partner 0.4 µg/mL | 0.083
S. aureus DSM 20231 [3], first compound 0.125 µg/mL, partner 0.1 µg/mL | 0.0376
S. aureus DSM 20231 [3], first compound 0.125 µg/mL, partner 0.2 µg/mL | 0.0455
S. aureus DSM 20231 [3], first compound 0.125 µg/mL, partner 0.4 µg/mL | 0.0541
S. pneumoniae D39V [2], first compound 0.0125 µg/mL, partner 0.2 µg/mL | 0.496
S. pneumoniae D39V [2], first compound 0.0125 µg/mL, partner 0.4 µg/mL | 0.351
S. pneumoniae D39V [2], first compound 0.0125 µg/mL, partner 0.8 µg/mL | 0.0708
S. pneumoniae D39V [2], first compound 0.015 µg/mL, partner 0.215 µg/mL | 0.831
S. pneumoniae D39V [2], first compound 0.015 µg/mL, partner 0.43 µg/mL | 0.741
S. pneumoniae D39V [2], first compound 0.015 µg/mL, partner 0.86 µg/mL | 0.482
S. pneumoniae D39V [2], first compound 0.025 µg/mL, partner 0.2 µg/mL | 0.356
S. pneumoniae D39V [2], first compound 0.025 µg/mL, partner 0.4 µg/mL | 0.243
S. pneumoniae D39V [2], first compound 0.025 µg/mL, partner 0.8 µg/mL | 0.0559
S. pneumoniae D39V [2], first compound 0.03 µg/mL, partner 0.215 µg/mL | 0.772
S. pneumoniae D39V [2], first compound 0.03 µg/mL, partner 0.43 µg/mL | 0.739
S. pneumoniae D39V [2], first compound 0.03 µg/mL, partner 0.86 µg/mL | 0.394
S. pneumoniae D39V [2], first compound 0.05 µg/mL, partner 0.2 µg/mL | 0.0687
S. pneumoniae D39V [2], first compound 0.05 µg/mL, partner 0.4 µg/mL | 0.0516
S. pneumoniae D39V [2], first compound 0.05 µg/mL, partner 0.8 µg/mL | 0.0164
S. pneumoniae D39V [2], first compound 0.06 µg/mL, partner 0.215 µg/mL | 0.632
S. pneumoniae D39V [2], first compound 0.06 µg/mL, partner 0.43 µg/mL | 0.524
S. pneumoniae D39V [2], first compound 0.06 µg/mL, partner 0.86 µg/mL | 0.152

Details | Bliss interaction score
B. subtilis 168 [4] | 0.193
S. aureus DSM 20231 [6] | -0.0523
S. aureus Newman | -0.22
S. pneumoniae D39V [5] | 0.0748
